We go through 22 compounds from US20070299043A1, “Anti-scarring drug combinations and use thereof” (priority 2005, published 2007).

The test system of one data set is NFAT. In words: NFAT activation, translocation and transactivation. Format: cell-based.
The next data set concerns p38, JNK, ERK. The data set is described as follows: p38, JNK and ERK activation. Format: cell-based.
Another data set concerns the target T1, glucocorticoid receptor (Homo sapiens, UniProt P04150).
T1 construct: endogenous in cells; host or cells: T cells
T1 sequence (P04150 1-777): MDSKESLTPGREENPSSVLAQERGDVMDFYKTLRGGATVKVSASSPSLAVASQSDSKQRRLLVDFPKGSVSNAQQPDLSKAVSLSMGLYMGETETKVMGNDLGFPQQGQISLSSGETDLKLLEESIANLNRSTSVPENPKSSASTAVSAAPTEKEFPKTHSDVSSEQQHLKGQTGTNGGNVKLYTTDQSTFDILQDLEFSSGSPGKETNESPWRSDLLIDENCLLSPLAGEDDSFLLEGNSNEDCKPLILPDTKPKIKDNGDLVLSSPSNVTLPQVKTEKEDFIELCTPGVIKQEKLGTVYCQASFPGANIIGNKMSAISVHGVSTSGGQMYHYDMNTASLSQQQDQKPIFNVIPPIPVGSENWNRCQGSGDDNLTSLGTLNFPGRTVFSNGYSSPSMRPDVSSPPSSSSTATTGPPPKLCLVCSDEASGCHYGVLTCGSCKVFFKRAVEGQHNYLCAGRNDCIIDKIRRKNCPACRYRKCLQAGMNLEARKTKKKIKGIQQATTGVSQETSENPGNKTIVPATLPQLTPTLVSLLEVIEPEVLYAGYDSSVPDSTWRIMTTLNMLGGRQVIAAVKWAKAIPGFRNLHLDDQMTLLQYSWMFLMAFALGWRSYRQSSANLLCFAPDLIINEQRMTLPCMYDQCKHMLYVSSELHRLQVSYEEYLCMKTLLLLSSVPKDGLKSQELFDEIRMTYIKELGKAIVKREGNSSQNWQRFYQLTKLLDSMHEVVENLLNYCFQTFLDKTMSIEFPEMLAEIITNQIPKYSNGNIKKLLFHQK
In words: Glucocorticoid receptor trafficking and GRE reporter plasmid transactivation in T cells. Format: cell-based. As to conditions: for potentiation of prednisolone's ability to transactivate a GRE reporter plasmid: T cells.

The next data set has as its system NFkB and AP1. In words: NFkB and AP1 activation. Format: cell-based.
The conditions of data set [1]: cited from earlier work; for solubility in alcohol/ethanol: alcohol or ethanol.
Data set [2] relates to mast cells and eosinophil activation.
The conditions of data set [3]: 200 mg/day orally; cited from earlier work.
The test system of data set [4] is K. pneumoniae ATCC13883 C238. The data set is described as follows: MIC by microtitre broth dilution. Format: cell-based. As to conditions: Gram−, wt; Mueller Hinton broth, 37° C, 24h. As for the experimental part: (§1) MIC assays were conducted essentially as described by Amsterdam, D. 1996, “Susceptibility testing of antimicrobials in liquid media”, p. 52-111, in Loman, V., ed. Antibiotics in laboratory medicine, 4th ed. Williams and Wilkins, Baltimore, Md.

A further data set has as its system S. pyogenes C721. In words: MIC by microtitre broth dilution. Format: cell-based. The note with it: Gram+, wt; Todd Hewitt broth, 37° C, 24h. As for the experimental part: as §1
The subject of data set [5] is P. aeruginosa PAE/K799 H187. In words: MIC by microtitre broth dilution. Format: cell-based. As to conditions: Gram−, wt; Mueller Hinton broth, 37° C, 24h. As for the experimental part:
as §1
On the technique in general: In broth dilution the organism is exposed to a series of concentrations in liquid medium.

The next data set has as its system S. aureus ATCC25923 C622. In words: MIC by microtitre broth dilution. Format: cell-based. The note with it: Gram+, wt; Mueller Hinton broth, 37° C, 24h. As for the experimental part:
as §1

For the next data set, the system named is E. coli UB1005 C498. The data set is described as follows: MIC by microtitre broth dilution. Format: cell-based. The note with it: for Minimum inhibitory concentration: Gram−, wt, Mueller Hinton broth, 37° C, 24h. As for the experimental part: as §1
Data set [6] is described as follows: Increase of the potency of an immunosuppressive agent.
For the next data set, the system named is S. epidermidis C621. In words: MIC by microtitre broth dilution. Format: cell-based. The note with it: Gram+, wt; Mueller Hinton broth, 37° C, 24h. As for the experimental part:
as §1

For data set [7], the system named is multiple species of bacteria and fungi. As to conditions: surface drug concentration is to be in excess of this value; cited from earlier work.
Data set [8] concerns carrageenan-induced paw edema. The data set is described as follows: Rat carrageenan-induced paw edema model, paw volume. The note with it: Amoxapine 2.26 mg/kg, foot pad, T-1 hr; Tmax = 6 hrs; listed as amoxapine (Amox). Format: in vivo. As for the experimental part:
A dose-range finding study was performed to determine the anti-inflammatory activity of various ratios of methyl prednisolone acetate and amoxapine in a rat carrageenan-induced paw edema model. […] The molar ratio of methyl prednisolone acetate to amoxapine ranged from 1:1 to 1:300, using total doses of methyl prednisolone acetate of 0.01, 0.03 or 0.1 mg/kg.
The test agent (a combination of methyl prednisolone acetate and amoxapine), vehicle control, or reference agents (methyl prednisolone acetate, amoxapine, or Depo-Medrol®) were administered in the left hind foot pad of rats. After 60 minutes, paw edema was induced by injection of 100 μl of 1% carrageenan in the same foot pad. The paw volume was measured with a water displacement plethysmometer immediately prior to test agent injection (T−1h), at the time of carrageenan injection (T0h), and at T6h. Animals were euthanized by carbon dioxide inhalation. Paw tissue samples were collected and flash frozen in liquid nitrogen. Samples were assayed for TNF-α by enzyme-linked immunoassay (ELISA).
In general terms: In the carrageenan paw model, swelling and tenderness develop within hours.

Data set [9] relates to LPS-induced TNF-α production. In words: Acute in vivo model of inflammation (LPS-induced TNF-α release). The note with it: component alone (prednisolone at reduced dose).
The subject of a further data set is joint swelling. The data set is described as follows: Chronic in vivo arthritis model (adjuvant model), joint swelling. As to conditions: component alone (prednisolone at reduced dose).

In brackets after ≈: the same amount, converted by molar mass. Structures can show the parent of a compound that is named as a salt.

Consider `Fc1ccc(C2CCNCC2COc2ccc3c(c2)OCO3)cc1` (single isomer, unassigned; (-)) [paroxetine, (−)-trans-4 R-(4′-fluorophenyl)-3 S-[(3′,4′-methylenedioxyphenoxy)methyl]piperidine hydrochloride hemihydrate], for which, in the data set on NFAT, the “NFAT activation, translocation and transactivation” value is reported as “represses”. In the data set with p38, JNK, ERK, the ERK activation result is recorded as “but not ERK activation”; the “p38 and JNK activation” value is given as “inhibition”. Besides, at glucocorticoid receptor, the “promotion of glucocorticoid receptor trafficking” value is “does not promote” and the “potentiation of prednisolone's ability to transactivate a GRE reporter plasmid” value is on record as “does not promote glucocorticoid receptor trafficking or potentiate”. In addition, in the data set on NFkB and AP1, the “NFkB and AP1 activation” value is reported as “inhibits”.
`Nc1ccc(/N=N/c2ccccc2)c(N)n1` [Phenazopyridine base, phenazopyridine]: in data set [1], the “solubility in alcohol/ethanol” value is “slightly soluble in water and alcohol”; the “solubility in water” value is “slightly soluble in water and alcohol”.
Take `CCOC(=O)N1CCC(=C2c3ccc(Cl)cc3CCc3cccnc32)CC1` [loratadine]: in [2], the “mast cells and eosinophil activation” value is “inhibits”.
For `CC(=O)N1CCN(c2ccc(OCC3COC(Cn4ccnc4)(c4ccc(Cl)cc4Cl)O3)cc2)CC1` (stereo not drawn) [ketoconazole], the serum concentration result in [3] was “about 3.2 micrograms”. In data set [1], the “solubility in water” value is “essentially insoluble in water”.
On to `NC(=O)c1ncn([C@@H]2O[C@H](CO)[C@@H](O)[C@H]2O)n1` [Ribavirin, ribavirin], for which the “solubility in alcohol/ethanol” value in data set [1] is “only slightly soluble in alcohol”.
`CC[C@@]1(O)C(=O)OCc2c1cc1n(c2=O)Cc2cc3ccccc3nc2-1` [camptothecin]: the Minimum inhibitory concentration result (in [4]; in the data set with S. pyogenes C721; in data set [5]; with S. aureus ATCC25923 C622; with E. coli UB1005 C498) was “N” in each case.
For `Nc1ccn([C@@H]2O[C@H](CO)[C@@H](O)[C@@H]2O)c(=O)n1` [Cytarabine, cytarabine], in the data set on E. coli UB1005 C498, the Minimum inhibitory concentration result is given as “N”.
Turning to `CN(C)C(=O)C(CCN1CCC(O)(c2ccc(Cl)cc2)CC1)(c1ccccc1)c1ccccc1` [Loperamide], the “potency of an immunosuppressive agent” value in [6] was “increase the potency”.
As to `N.N.[Cl][Pt][Cl]` [cisplatin], the Minimum inhibitory concentration entry in data set [4] is “N”; in the data set on S. pyogenes C721, “N”; in data set [5], 10^−4 Molar; in the data set on S. aureus ATCC25923 C622, “N”; in the data set on S. epidermidis C621, “N”; with E. coli UB1005 C498 it was “N”.
In the case of `CN(Cc1cnc2nc(N)nc(N)c2n1)c1ccc(C(=O)N[C@@H](CCC(=O)O)C(=O)O)cc1` [methotrexate], the Minimum inhibitory concentration is 10^−6 Molar in [4]; 10^−6 Molar in the data set with S. pyogenes C721; “N” in data set [5]; 10^−5 Molar in the data set with S. aureus ATCC25923 C622; “N” with S. epidermidis C621; “N” with E. coli UB1005 C498.
`NC(=O)NO` [hydroxyurea]: the Minimum inhibitory concentration result in [4] is reported as “N”; in the data set on S. pyogenes C721, 10^−4 Molar; in data set [5] it was 10^−4 Molar; in the data set with S. aureus ATCC25923 C622 it was “N”; in the data set on S. epidermidis C621 it was “N”; in the data set on E. coli UB1005 C498, “N”.
As to `O=c1[nH]cc(F)c(=O)[nH]1` [5-fluorouracil, 5-Fluorouracil], the MIC with E. coli UB1005 C498 (Escherichia coli, UB1005C498, 24 h, read-out: Minimum inhibitory concentration) was determined as 1 µM (≈ 0.13 µg/mL). In addition, the “concentration known to be lethal to multiple species of bacteria and fungi” value (“concentration known to be lethal” below) in data set [7] is given as > 10^−4 M.
As to `O=C1c2c(O)ccc(O)c2C(=O)c2c(NCCNCCO)ccc(NCCNCCO)c21` [mitoxantrone], in the data set on E. coli UB1005 C498, the Minimum inhibitory concentration was 10^−5 Molar. The “concentration known to be lethal” value in data set [7] was > 10^−5 M.
In the case of `Sc1ncc2[nH]cnc2n1` [2-mercaptopurine], the Minimum inhibitory concentration result in the data set on E. coli UB1005 C498 is recorded as “N”.
For the compound `Oc1cc(Cl)ccc1Oc1ccc(Cl)cc1Cl` [triclosan], in data set [6], the “potency of an immunosuppressive agent” value is recorded as “increases the potency”.
Still for that read-out and setting: as for `CCN(CC)C(C)CN1c2ccccc2Sc2ccccc21` (stereo not drawn) [Ethopropazine, ethopropazine], the entry is “increases the potency”.
Turning to `COc1cc([C@@H]2c3cc4c(cc3[C@@H](O[C@@H]3O[C@@H]5CO[C@@H](C)O[C@H]5[C@H](O)[C@H]3O)[C@H]3COC(=O)[C@H]23)OCO4)cc(OC)c1O` [etoposide], the Minimum inhibitory concentration result with E. coli UB1005 C498 is “N”.
Consider `Clc1ccc2c(c1)C(N1CCNCC1)=Nc1ccccc1O2` [amoxapine], for which the “NFAT activation, translocation and transactivation” value in the data set with NFAT is “block”. For the same compound, the “Edema ± SEM” value in data set [8] is recorded as “not significantly different from the vehicle treatment”. Further, in the data set on p38, JNK, ERK, the ERK activation result is reported as “unaffected”; the “p38 and JNK activation” value was “Inhibition”. On glucocorticoid receptor, the “promotion of glucocorticoid receptor trafficking” value was “does not promote” and the “potentiation of prednisolone's ability to transactivate a GRE reporter plasmid” value is on record as “does not potentiate”. In the data set on NFkB and AP1, the “NFkB and AP1 activation” value is “partially inhibits”. The “effect of the individual component alone” value in data set [9] is “modest or no benefit”. The “effect of the individual component alone” value in the data set on joint swelling is given as “modest or no benefit”.
For the compound `Sc1ncnc2nc[nH]c12` [6-mercaptopurine], the Minimum inhibitory concentration entry in the data set with E. coli UB1005 C498 is reported as “N”.
Turning to `CNCCCC12CCC(c3ccccc31)c1ccccc12` [maprotiline], the “potency of an immunosuppressive agent” value in [6] is “increases the potency”.
In the case of `Nc1ncnc2c1ccn2[C@@H]1O[C@H](CO)[C@@H](O)[C@H]1O` [tubercidin], the Minimum inhibitory concentration result (in data set [4]; in the data set with S. pyogenes C721; in data set [5]; in the data set with S. aureus ATCC25923 C622; with S. epidermidis C621; in the data set with E. coli UB1005 C498) was “N” in each case.
On to `COc1cccc2c1C(=O)c1c(O)c3c(c(O)c1C2=O)C[C@@](O)(C(=O)CO)C[C@@H]3O[C@H]1C[C@H](N)[C@H](O)[C@H](C)O1` [doxorubicin, Doxorubicin], for which the Minimum inhibitory concentration in [4] is 10^−6 Molar; in the data set on S. pyogenes C721, 10^−7 Molar; in [5], 10^−5 Molar; in the data set with S. aureus ATCC25923 C622, 10^−5 Molar; in the data set on S. epidermidis C621, 10^−6 Molar; with E. coli UB1005 C498 it was 10^−4 Molar. Moreover, the “concentration known to be lethal” value in [7] is given as > 10^−4 M.
